Assay results published in US10800816B2 (Baxalta GmbH, priority 2012, dated 2020).
pEC50, pIC50: −log10 of the molar value. Values belong to the molecule of their own block, whether it stands above or below them. *1 amine or outer side, *2 acyl side, *3 side chain or, on linkers, in order; H or OH if unused. Where a SMILES comes first, the peptide text is derived from it. Side-chain parts run from the residue outwards. [ ]: non-standard residue; d: D form. The star is where a group is joined. TTDA(Palmitoyl) = CCCCCCCCCCCCCCCC(=O)NCCCOCCOCCOCCCN*; Succinimide(1-Et,3-yl) = CCN1C(=O)CC(*)C1=O; Suc = O=C(CCC(=O)[*:2])[*:1]; Tle = CC(C)(C)[C@H](N)C(=O)O; Hexanoyl = CCCCCC(=O)*; Aib = CC(C)(N)C(=O)O; Acm = CC(=O)NC*

Key:
TFPI = experiment: IC50 ELISA | Mean IC50 [nM]
Excerpt: Table printed on a drawing sheet, FIGURE 78Z
Head of the field: IC50 ELISA | Mean IC50 [nM]
First copying reader's note: Continued table: the first body row (45.67) belongs to a compound on the preceding sheet, the last row probably continues on the next sheet, and cells with several values list single replicates.

FIGURE 78J = experiment: FIGURE 78J
Excerpt: Table printed on a drawing sheet, FIGURE 78J
First reader's note: Part of a table series (FIGS. 78A-78AA); single-measurement columns hold several replicate values per cell, joined by blanks, next to the mean column (the first INHIBITION [%] column holds the mean).

[1] = system: FVIII-inhibited whole blood; experiment: Rotation thromboelastography (ROTEM) in whole blood; design: species or system human; conditions: for pEC50: FVIII-inhibited, read-out: EC50, global hemostatic parameters; for coagulation parameters: Hem A / FVIII-inhibited human whole blood
Description: Continuous visco-elastic assessment of human whole blood clot formation and firmness was performed by rotation thromboelastography with whole blood preparations in the presence or absence of peptides. […] Test samples were prepared by dissolving quantities of peptides in either DMSO or HEPES buffered saline (with or without 0.1% Tween 80).
Recordings were made using a ROTEM thromboelastography coagulation analyzer (Pentapharm, Munich, Germany) at 37° C. Briefly, blood is added into a disposable cuvette in a heated cuvette holder. A disposable pin (sensor) is fixed on the tip of a rotating axis. The axis is guided by a high precision ball bearing system and rotates back and forth. The axis is connected with a spring for the measurement of elasticity. The exact position of the axis is detected by the reflection of light on a small mirror on the axis. The loss of elasticity when the sample clots leads to a change in the rotation of the axis. The data obtained are computer analyzed and visualized in a thromboelastogram. […] An elasticity of approximately zero is observed before clot formation begins. Mirror image traces above and below the zero line indicate the effect of clot formation on the rotation of the axis.
The analytical set-up was as follows: to 20 μL of test sample or control, 300 μL of pre-warmed (37° C.) CTI treated citrated whole blood was added, followed by 20 μL of a 1:15 dilution of TF PRP reagent containing recombinant human tissue factor (rTF, 3 pM) (TS40, Thrombinoscope BV, Maastricht, The Netherlands). Coagulation was initiated by the addition of 20 μ200 mM CaCl2 (star-TEM®, Pentapharm, Munich, Germany) and recordings were allowed to proceed for at least 120 min. The final concentration of rTF in the assay was 11 or 44 fM.
The thromboelastographic parameters of clotting time (CT), clot formation time (CFT) and maximum clot firmness (MCF) were recorded in accordance with the manufacturer's instructions. CT is defined as the time from the start of measurement to the start of clot formation. CFT is defined as the time from the start of clot formation until an amplitude of 20 mm is reached. MCF is the maximum difference in amplitude between the two traces during the assay. The first derivative of the data of the thromboelastogram are plotted to obtain a graph of velocity (mm/s) against time (s). From this graph, the maximum velocity (maxV) is determined. The time at which the maximum velocity is obtained (maxV-t) is also determined.
This example describes a method for assessing clot formation in whole blood using rotation thromboelastography (ROTEM). The assay was performed as described in Example 8. The analytical set-up was as follows: 300 μL of pre-warmed (37° C.) CTI treated citrated whole blood was added to a peptide sample (10, 100, 1000 nM final assay concentration) or a control, followed by addition of a 1:15 dilution of TF PRP reagent containing recombinant human tissue factor (rTF, 3 pM) (TS40, Thrombinoscope BV, Maastricht, The Netherlands). In certain experiments, exogenous full length TFPI (flTFPI) at final concentrations of 2 or 10 nM was added to simulate flTFPI plasma levels of up to 50-fold over normal. Coagulation was initiated by the addition of 20 μL 200 mM CaCl2 (star-TEM®, Pentapharm, Munich, Germany) and recordings were allowed to proceed for at least 120 min. The final concentration of rTF in the assay was 44 fM. The thromboelastographic parameters of clotting time (CT), clot formation time (CFT) and maximum clot firmness (MCF) were recorded in accordance with the manufacturer's instructions. CT is defined as the time from the start of measurement to the start of clot formation. CFT is defined as the time from the start of clot formation until an amplitude of 20 mm is reached. MCF is the maximum difference in amplitude between the two traces during the assay.

FIGURE 78K = experiment: FIGURE 78K
Excerpt: Table printed on a drawing sheet, FIGURE 78K

Molecule: CCCCCCCCCCCCCCCC(=O)NCCCOCCOCCOCCCNC(=O)CCC(=O)NCCCC[C@H](NC(=O)[C@H](CC(C)C)NC(=O)[C@H](CCCCN)NC(=O)[C@H](C)NC(=O)C(C)(C)NC(=O)[C@H](CC(C)C)NC(=O)[C@H](CCCNC(=N)N)NC(=O)[C@H](CCC(=O)O)NC(=O)[C@H](Cc1ccccc1)NC(=O)[C@H](Cc1ccc(O)cc1)NC(=O)[C@@H](C)NC(=O)[C@H](CC(=O)O)NC(=O)[C@@H](NC(=O)[C@H](Cc1c[nH]cn1)NC(=O)[C@@H](NC(=O)[C@H](CSCNC(C)=O)NC(=O)[C@H]1CCCN1C(=O)[C@H](CCCCN)NC(=O)[C@H](CO)NC(=O)[C@H](CCC(N)=O)NC(=O)[C@H](Cc1ccccc1)NC(=O)CCCCC)C(C)C)C(C)(C)C)C(N)=O [JBT00002532, Hex-FQSKp-Cys(Acm)-VH-Tle-DaYFERL-Aib-AKLK(Ttds- Palm)--NH2] (Hexanoyl-FQSK[dP]C(Acm)VH[Tle]D[dA]YFERL[Aib]AKLK([Suc-TTDA(Palmitoyl)])-NH2)
pIC50 (TFPI): 7.44
24 h Human Plasma Stability | Mean Remaining [%] (FIGURE 78Z): 107.70%
24 h Mouse Plasma Stability | Mean Remaining [%] (FIGURE 78Z): 67.50%

24 h Human Plasma Stability | Mean Remaining [%] (FIGURE 78Z): 59.83%
24 h Mouse Plasma Stability | Mean Remaining [%] (FIGURE 78Z): 69.87%
Molecule: Hex-FQSKp-Cys(Acm)-VH-Tle-DaYFERL-Aib-AKLC(ME- 400MA)-NH2 [JBT00002534]

24 h Human Plasma Stability | Mean Remaining [%] (FIGURE 78J): 67.60%
24 h Mouse Plasma Stability | Mean Remaining [%] (FIGURE 78J): 44.70%
Molecule: Ac-FQSKpNVHVDGYFERL-Aib-AKLC(ME-50MA)-NH2 [JBT00002325]

Molecule: CCCCCC(=O)N[C@@H](Cc1ccccc1)C(=O)N[C@@H](CCC(N)=O)C(=O)N[C@@H](CO)C(=O)N[C@@H](CCCCN)C(=O)N1CCC[C@@H]1C(=O)N[C@@H](CSCNC(C)=O)C(=O)N[C@H](C(=O)N[C@@H](Cc1c[nH]cn1)C(=O)N[C@H](C(=O)N[C@@H](CC(=O)O)C(=O)N[C@H](C)C(=O)N[C@@H](Cc1ccc(O)cc1)C(=O)N[C@@H](Cc1ccccc1)C(=O)N[C@@H](CCC(=O)O)C(=O)N[C@@H](CCCNC(=N)N)C(=O)N[C@@H](CC(C)C)C(=O)NC(C)(C)C(=O)N[C@@H](C)C(=O)N[C@@H](CCCCN)C(=O)N[C@@H](CC(C)C)C(N)=O)C(C)(C)C)C(C)C [JBT2528, Hex-FQSKp-C(Acm)-VH-Tle-DaYFERL-Aib-AKL-NH2] (Hexanoyl-FQSK[dP]C(Acm)VH[Tle]D[dA]YFERL[Aib]AKL-NH2)
pEC50 [1]: 7.96

24 h Human Plasma Stability | Mean Remaining [%] (FIGURE 78Z): 185.13%
24 h Mouse Plasma Stability | Mean Remaining [%] (FIGURE 78Z): 52.65%
Molecule: (Hex-FQSKp-Cys(Acm)-VH-Tle-DaYFERL-Aib-AKLC- NH2)2-M2TriO [JBT00002533]

Molecule: Ac-FQSKpNVHVDGYFERL-Aib-AKLC(ME-200MA0B)-NH2 [JBT00002327]
24 h Human Plasma Stability | Mean Remaining [%] (FIGURE 78K): 76.50%
24 h Mouse Plasma Stability | Mean Remaining [%] (FIGURE 78K): 65.50%

24 h Human Plasma Stability | Mean Remaining [%] (FIGURE 78J): 58.70%
24 h Mouse Plasma Stability | Mean Remaining [%] (FIGURE 78J): 57.20%
Molecule: Ac-FQSKpNVHVDGYFERL-Aib-AKLC(ME-120MA)-NH2 [JBT00002326]

Molecule: Ac-FQSKpNVHVDGYFERL-Aib-AKLC(ME-300MA)-NH2 [JBT00002328]
24 h Human Plasma Stability | Mean Remaining [%] (FIGURE 78K): 68.40%
24 h Mouse Plasma Stability | Mean Remaining [%] (FIGURE 78K): 51.00%

Molecule: CCCCCC(=O)N[C@@H](Cc1ccccc1)C(=O)N[C@@H](CCC(N)=O)C(=O)N[C@@H](CO)C(=O)N[C@@H](CCCCN)C(=O)N1CCC[C@@H]1C(=O)N[C@@H](CSCNC(C)=O)C(=O)N[C@H](C(=O)N[C@@H](Cc1c[nH]cn1)C(=O)N[C@H](C(=O)N[C@@H](CC(=O)O)C(=O)N[C@H](C)C(=O)N[C@@H](Cc1ccc(O)cc1)C(=O)N[C@@H](Cc1ccccc1)C(=O)N[C@@H](CCC(=O)O)C(=O)N[C@@H](CCCNC(=N)N)C(=O)N[C@@H](CC(C)C)C(=O)NC(C)(C)C(=O)N[C@@H](C)C(=O)N[C@@H](CCCCN)C(=O)N[C@@H](CC(C)C)C(=O)N[C@@H](CSC1CC(=O)N(CC)C1=O)C(N)=O)C(C)(C)C)C(C)C (stereo partly drawn) [JBT00002537, Hex-FQSKp-Cys(Acm)-VH-Tle-DaYFERL-Aib-AKLC(NEM)- NH2] (Hexanoyl-FQSK[dP]C(Acm)VH[Tle]D[dA]YFERL[Aib]AKLC(Succinimide(1-Et,3-yl))-NH2)
pIC50 (TFPI): 8.15
24 h Human Plasma Stability | Mean Remaining [%] (FIGURE 78Z): 106.65%

Molecule: CC(=O)N[C@@H](Cc1ccccc1)C(=O)N[C@@H](CCC(N)=O)C(=O)N[C@@H](CO)C(=O)N[C@@H](CCCCN)C(=O)N1CCC[C@@H]1C(=O)N[C@@H](CC(N)=O)C(=O)N[C@H](C(=O)N[C@@H](Cc1c[nH]cn1)C(=O)N[C@H](C(=O)N[C@@H](CS)C(=O)NCC(=O)N[C@@H](Cc1ccc(O)cc1)C(=O)N[C@@H](Cc1ccccc1)C(=O)N[C@@H](CCC(=O)O)C(=O)N[C@@H](CCCNC(=N)N)C(=O)N[C@@H](CC(C)C)C(=O)NC(C)(C)C(=O)N[C@@H](C)C(=O)N[C@@H](CCCCN)C(=O)N[C@@H](CC(C)C)C(N)=O)C(C)C)C(C)C [JBT00002371]
24 h Human Plasma Stability | Mean Remaining [%] (FIGURE 78M): 31.20%

Molecule: CSCC[C@@H]1NC(=O)[C@H](C)NC(=O)[C@@H](NC(=O)[C@H](Cc2c[nH]cn2)NC(=O)[C@H](Cc2c[nH]c3ccccc23)NC(=O)[C@H](CCCCN)NC(=O)[C@H](Cc2ccc(O)cc2)NC(=O)[C@H](Cc2ccc(O)cc2)NC(=O)[C@H](CO)NC(C)=O)CSSC[C@@H](C(=O)N[C@H](C(=O)N[C@@H](Cc2c[nH]c3ccccc23)C(=O)N[C@H](C(=O)N[C@@H](CCCCN)C(=O)N[C@@H](Cc2ccccc2)C(N)=O)C(C)C)C(C)C)NC(=O)[C@H]([C@@H](C)O)NC(=O)[C@H](CCSC)NC(=O)[C@H]([C@@H](C)O)NC(=O)CNC(=O)[C@H](CCCCN)NC(=O)[C@H](CCSC)NC(=O)[C@H](CC(=O)O)NC(=O)[C@H](CCCNC(=N)N)NC1=O [JBT1837]
pEC50 [1]: 8.40
coagulation parameters [1]: corrected blood coagulation parameters in FVIII-inhibited blood

Molecule: CCN1C(=O)CC(SC[C@H](NC(=O)[C@H](CC(C)C)NC(=O)[C@H](CCCCN)NC(=O)[C@H](C)NC(=O)C(C)(C)NC(=O)[C@H](CC(C)C)NC(=O)[C@H](CCCNC(=N)N)NC(=O)[C@H](CCC(=O)O)NC(=O)[C@H](Cc2ccccc2)NC(=O)[C@H](Cc2ccc(O)cc2)NC(=O)CNC(=O)[C@H](CC(=O)O)NC(=O)[C@@H](NC(=O)[C@H](Cc2c[nH]cn2)NC(=O)[C@@H](NC(=O)[C@H](CC(N)=O)NC(=O)[C@H]2CCCN2C(=O)[C@H](CCCCN)NC(=O)[C@H](CO)NC(=O)[C@H](CCC(N)=O)NC(=O)[C@H](Cc2ccccc2)NC(C)=O)C(C)C)C(C)C)C(N)=O)C1=O (stereo partly drawn) [JBT2317]
coagulation parameters [1]: restored coagulation parameters in Hem A blood
24 h Human Plasma Stability | Mean Remaining [%] (FIGURE 78J): 23.77%
24 h Mouse Plasma Stability | Mean Remaining [%] (FIGURE 78J): 15.95%
